The test system of assay [1] is LNCaP cells. The assay is described as follows: Expression profiling of 5-Aza treated LNCaP cells (Agilent 44K array, one-class SAM). In kind it is cell-based, human. To be noted: 6 μM 5-Aza for 4 or 6 days vs DMSO, 5% false discovery rate, number of methylated genes on the array. How it is done:
Significance analysis of microarray (SAM) (Tusher et al. Proc Natl Acad Sci USA 98: 5116-5121 2001) was performed on the gene expression dataset obtained from 5-Aza and DMSO-treated LNCaP cells by selecting genes that were methylated in LNCaP. From 1,171 methylated genes from LNCaP M-NGS (Table 1), a total of 973 genes were mapped to Agilent expression profiling data. One-class SAM analysis was done using default settings and significant genes were calculated with a false discovery rate (FDR) of 0.05.
For 5-Aza stimulation experiments, LNCaP cells cultured in RPMI 1640 were treated with vehicle, dimethyl sulfoxide (DMSO) or 6 μM 5-Aza for 4 or 6 days in duplicates. Total RNA was isolated with Trizol (Life Technologies, Carlsbad, Calif.) and further purified using RNAeasy Micro Kit (Qiagen, Valencia, Calif.) according to the manufacturer's instructions. Expression profiling was performed using the Agilent 44K expression array. One microgram of total RNA was converted to cRNA and then labeled according to the manufacturer's protocol (Agilent). Hybridizations were performed for 16 h at 65° C. Scanned images from Agilent microarray scanner were analyzed and extracted using Agilent Feature Extraction Software 9.1.3.1 with linear and lowess normalization performed for each array. […]

The test system of assay [2] is LNCaP cells. The assay is described as follows: Quantitative real time PCR of transcript variants in 5-Aza treated LNCaP cells. To be noted: 5-Aza treatment vs DMSO. In kind it is cell-based, human. How it is done: Total RNA was isolated from cells using RNeasy mini kit (Qiagen, Valencia, Calif.) according to manufacturer's instructions. A DNAseI treatment step was included during the total RNA isolation procedure to remove genomic DNA from the samples. One microgram of total RNA was used in cDNA synthesis using Superscript III reverse transcriptase (Invitrogen, Carlsbad, Calif.). Quantitative real time PCR (QPCR) was performed on prostate cell line cDNA samples using SYBR Green Mastermix (Applied Biosystems) on an Applied Biosystems 7900 Real Time PCR system as described (Tomlins et al. 2007, Nat Genet 39: 41-51). GAPDH primers sequences were as described (Vandesompele et al. 2002, Genome Biol 3: RESEARCH0034). The amount of target transcript and GAPDH in each sample was normalized by standard ddCt methodology, and then to the reference PrEC or DMSO-treated LNCaP samples accordingly.
For 5-Aza stimulation experiments, LNCaP cells cultured in RPMI 1640 were treated with vehicle, dimethyl sulfoxide (DMSO) or 6 μM 5-Aza for 4 or 6 days in duplicates. Total RNA was isolated with Trizol (Life Technologies, Carlsbad, Calif.) and further purified using RNAeasy Micro Kit (Qiagen, Valencia, Calif.) according to the manufacturer's instructions. Expression profiling was performed using the Agilent 44K expression array. One microgram of total RNA was converted to cRNA and then labeled according to the manufacturer's protocol (Agilent). Hybridizations were performed for 16 h at 65° C. Scanned images from Agilent microarray scanner were analyzed and extracted using Agilent Feature Extraction Software 9.1.3.1 with linear and lowess normalization performed for each array. A total of 4 hybridizations were performed including two 4 day and two 6 day 5-Aza treated samples (Cy5) against control DMSO-treated samples (Cy3). The accession number for gene expression dataset in the GEO database is GSE27619.

“Also recorded” adds a separate entry of the source.

Regarding `Nc1ncn([C@H]2C[C@H](O)[C@@H](CO)O2)c(=O)n1` [5-Aza, 5-Aza-2′-deoxycytidine], in the assay on LNCaP cells [1], the “upregulation of LNCaP methylated genes (SAM)” value is 246 out of 973. In the assay with LNCaP cells [2], the “re-expression of CpG-methylated APC variant-2 and -3” value is reported as “preferentially re-expressed; also recorded: re-expression”; the “re-expression of CpG-methylated NDRG2 variants 1-4” value is recorded as “preferentially re-expressed; also recorded: re-expression”; the “re-expression of CpG-methylated RASSF1 variant-1 transcript” value is given as “preferential re-expression”.

For the origin of these results see patent publication US20130022974A1, “DNA METHYLATION PROFILES IN CANCER” (THE REGENTS OF THE UNIVERSITY OF MICHIGAN, priority 2011, published 2013).
